From PubChem BioAssay AID1259408 (Genetic Toxicology Data Bank (GENE-TOX), 2018) come the findings set out here.

Activity calls are given as the source filed them. No rule for the calls is given here.

This data set concerns GENE-TOX genotoxicity assays, various organisms and cells. Briefly: GENE-TOX mutagenicity studies.
Setting [1] is: Species/Cell Type: Salmonella typhimurium (one or more of the five standard strains: TA98, TA100, TA1535, TA1537, and TA1538), Assay Type: Histidine reverse gene mutation, Ames assay, Assay Code: SAL-, Evaluation Type: Evaluation A (Pre-1980).
Where [2] appears, read: Species/Cell Type: Salmonella typhimurium (one or more of the five standard strains: TA98, TA100, TA1535, TA1537, and TA1538), Assay Type: Histidine reverse gene mutation, Ames assay, Assay Code: SALT, Evaluation Type: Evaluation A (Pre-1980).

For the molecule `NC(=O)c1ccccc1`, the mutagenic call is “active; positive” (Species/Cell Type: Human, Assay Type: Sister-chromatid exchange (SCE) in vitro, Assay Code: SC1+, Evaluation Type: Evaluation B (Post-1980)); “active; positive” (Species/Cell Type: Mammalian polychromatic erythrocytes, Assay Type: Micronucleus test, chromosome aberrations, Assay Code: MNT+U, Dose Response: Unconfirmed positive response, Evaluation Type: Evaluation B (Post-1980)); “active; positive” (Species/Cell Type: Nonhuman, Assay Type: Sister-chromatid exchange (SCE) in vitro, Assay Code: SC2+, Evaluation Type: Evaluation B (Post-1980)).
In the case of `Cc1cc(=O)n(-c2ccccc2)n1C`, the mutagenic call under setting [1] was “inactive; negative”.
Consider `C1O[C@@H]1[C@@H]1CO1`, for which the mutagenic call by setting is: (Species/Cell Type: Arabidopsis species, Assay Type: Gene mutation, Assay Code: ARM+, Evaluation Type: Evaluation A (Pre-1980)) “active; positive”; (Species/Cell Type: Schizosaccharomyces pombe, Assay Type: Reverse gene mutation, Assay Code: YEZ+, Evaluation Type: Evaluation A (Pre-1980)) “active; positive”; (Species/Cell Type: Zea mays (corn), Assay Type: Gene mutation, Assay Code: ZEM+, Evaluation Type: Evaluation A (Pre-1980)) “active; positive”.
Regarding `COc1ccc(OC)c(N=Nc2c(O)ccc3ccccc23)c1`, where the note is “Species/Cell Type: Nonhuman, Assay Type: In vivo carcinogenicity studies, Assay Code: CCG+, Evaluation Type: Evaluation A (Pre-1980)”, the call is “active; positive”. In addition, under setting [1], the mutagenic call is “inactive; negative”.
For `[2H]C1([2H])CNP(=O)(N(CCCl)CCCl)OC1` (configuration not stated), for the setting “Species/Cell Type: Nonhuman, Assay Type: Sister-chromatid exchange (SCE) in vitro, Assay Code: SC2+D*, Activation: With metabolic activation, Dose Response: With dose response, Evaluation Type: Evaluation B (Post-1980)”, the mutagenic call is “active; positive”.
Turning to `COc1cc(O)c2c(c1)C(=O)c1cc(C)cc(O)c1C2=O`, where the note is “Species/Cell Type: Salmonella typhimurium (one or more of the five standard strains: TA98, TA100, TA1535, TA1537, and TA1538), Assay Type: Histidine reverse gene mutation, Ames assay, Assay Code: SAL+*, Activation: With metabolic activation, Evaluation Type: Evaluation A (Pre-1980)”, the mutagenic call is “active; positive”.
As to `Cn1c([N+](=O)[O-])cnc1COC(N)=O`, the mutagenic call (Species/Cell Type: Mammalian polychromatic erythrocytes, Assay Type: Micronucleus test, chromosome aberrations, Assay Code: MNTT, Evaluation Type: Evaluation A (Pre-1980)) is “no conclusion”; the mutagenic call (Species/Cell Type: Rodents, Sex: Male, Assay Type: Dominant lethal test, Assay Code: DLT-, Evaluation Type: Evaluation A (Pre-1980)) was “inactive; negative”; the mutagenic call (Species/Cell Type: Salmonella typhimurium (one or more of the five standard strains: TA98, TA100, TA1535, TA1537, and TA1538), Assay Type: Histidine reverse gene mutation, Ames assay, Assay Code: SAL+, Evaluation Type: Evaluation A (Pre-1980)) was “active; positive”.
Regarding `COP(=O)(OC)O/C(C)=C/C(=O)OC(C)c1ccccc1` (configuration not stated), the mutagenic call is “no conclusion” (Species/Cell Type: Bacillus subtilis (H17 vs M45), Assay Type: Rec-assay, spot test, DNA effects (bacterial DNA repair), Assay Code: REWT, Evaluation Type: Evaluation A (Pre-1980)); “inactive; negative” (Species/Cell Type: Escherichia coli WP2 UVRA, Assay Type: Tryptophan reverse gene mutation, Assay Code: WPU-*, Activation: With metabolic activation, Evaluation Type: Evaluation A (Pre-1980)); “no conclusion” (Species/Cell Type: Escherichia coli polA (W3119 vs P3478), Assay Type: Rec-assay, DNA effects (bacterial DNA repair), Assay Code: RE1T, Evaluation Type: Evaluation A (Pre-1980)); “inactive; negative” (Species/Cell Type: Human diploid fibroblasts, Assay Type: Unscheduled DNA synthesis (UDS) in vitro, DNA effects, Assay Code: UDH-, Evaluation Type: Evaluation A (Pre-1980)); “active; positive” (Species/Cell Type: Saccharomyces cerevisiae, Assay Type: Mitotic recombination or gene conversion, Assay Code: YEH+, Evaluation Type: Evaluation A (Pre-1980)); “inactive; negative” under setting [1].
With `CC(=O)OCCCCCCBr`, the mutagenic call (Species/Cell Type: Mammalian polychromatic erythrocytes, Assay Type: Micronucleus test, chromosome aberrations, Assay Code: MNTT, Evaluation Type: Evaluation B (Post-1980)) is “no conclusion”.
On to `CN(C)CCN(Cc1cccs1)c1ccccn1`, for which the mutagenic call (Species/Cell Type: Chinese hamster ovary (CHO) cells, Assay Type: Forward gene mutation at the HPRT locus, Assay Code: CHOT, Evaluation Type: Evaluation B (Post-1980)) is “no conclusion”; the mutagenic call (Species/Cell Type: Nonhuman, Assay Type: Sister-chromatid exchange (SCE) in vitro, Assay Code: SC2-, Evaluation Type: Evaluation B (Post-1980)) is “inactive; negative”; the mutagenic call (Species/Cell Type: Nonhuman, Assay Type: Sister-chromatid exchange (SCE) in vivo, Assay Code: SC3-, Evaluation Type: Evaluation B (Post-1980)) is “inactive; negative”.
As to `O=S1(=O)OC(c2cc(Br)c(O)c(Br)c2)(c2cc(Br)c(O)c(Br)c2)c2ccccc21`, the mutagenic call under setting [2] is “no conclusion”.
Same read-out and setting: the same measure for `Cc1cc2c(ccc3ccccc32)c2c1C(=O)CC2`: “no conclusion”.
Consider `CCCC(=O)C1c2cccc(O)c2C(=O)c2c(O)cccc21`, for which the mutagenic call (Species/Cell Type: Mammalian polychromatic erythrocytes, Assay Type: Micronucleus test, chromosome aberrations, Assay Code: MNT-, Evaluation Type: Evaluation B (Post-1980)) was “inactive; negative”.
